Test results taken from patent US12649751B2 (Arcus Biosciences, Inc., priority 2022, dated 2026).
Like-named read-outs stand apart in the source and are kept apart here.

What was measured:
[1] = test system: p-SLP-76 (Ser376) in Jurkat cells; assay: pSLP76 Cellular Assay (AlphaLISA SureFire Ultra p-SLP-76 (Ser376), anti-CD3 activated Jurkat cells); assay type: cell-based; settings: Homo sapiens; Jurkat cells, anti-CD3 stimulation, pSLP76; read-out: Cellular Potency
Outline: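 Read-out is AlphaLISA p-SLP-76 (Ser376) signal at 570 nm in Jurkat lysates, with IC50 fitted by 4-parameter logistic. Cells were starved overnight, exposed 1 h at 37 °C to 22 twofold compound dilutions in HBSS, then activated 45 min with anti-CD3 (0.025 mg/ml stock added).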

[2] = target: HPK1 (Homo sapiens, UniProt Q92918); assay: HPK1 Biochemical Assay (ADP-Glo luminescence; low ATP 10 μM or high ATP 200 μM)
[3] = 2 nM HPK1, 10 μM ATP, read-out: Biochemical Potency (low ATP)
[4] = 5 nM HPK1, 200 μM ATP, read-out: Biochemical Potency (high ATP)

HPK1, sequence (Q92918 whole entry, species assumed): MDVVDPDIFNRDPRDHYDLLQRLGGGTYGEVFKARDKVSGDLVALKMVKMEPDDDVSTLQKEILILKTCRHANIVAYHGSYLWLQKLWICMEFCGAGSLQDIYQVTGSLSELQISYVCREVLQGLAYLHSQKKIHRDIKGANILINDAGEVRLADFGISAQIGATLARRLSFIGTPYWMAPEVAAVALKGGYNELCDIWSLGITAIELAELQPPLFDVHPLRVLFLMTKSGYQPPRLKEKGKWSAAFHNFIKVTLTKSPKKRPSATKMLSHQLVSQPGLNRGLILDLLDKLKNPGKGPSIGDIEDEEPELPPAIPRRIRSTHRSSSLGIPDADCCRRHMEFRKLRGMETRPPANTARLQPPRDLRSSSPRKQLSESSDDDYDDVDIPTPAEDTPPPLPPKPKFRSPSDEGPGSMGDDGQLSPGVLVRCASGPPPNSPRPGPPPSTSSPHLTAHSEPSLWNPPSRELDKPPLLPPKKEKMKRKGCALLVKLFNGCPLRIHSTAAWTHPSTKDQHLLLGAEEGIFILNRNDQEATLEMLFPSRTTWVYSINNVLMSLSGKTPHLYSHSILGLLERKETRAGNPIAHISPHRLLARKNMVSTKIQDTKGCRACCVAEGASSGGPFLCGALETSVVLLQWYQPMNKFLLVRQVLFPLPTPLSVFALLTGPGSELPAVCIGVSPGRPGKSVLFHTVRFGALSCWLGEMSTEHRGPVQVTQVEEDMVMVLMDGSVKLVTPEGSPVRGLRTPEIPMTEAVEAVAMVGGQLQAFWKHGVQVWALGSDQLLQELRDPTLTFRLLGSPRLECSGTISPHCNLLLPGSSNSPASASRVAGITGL

Structure (SMILES) | IC50 [1] | IC50 [2, 3] | IC50 [2, 4]
FC(F)n1cc(-c2nc3cc(Nc4ccc(C5CCOCC5)c(CN5CCCC5)n4)ncc3s2)cn1 [Example 224, N-{2-[1-(Difluoromethyl)-1H-pyrazol-4-yl]-[1,3]thiazolo[5,4-c]pyridin-6-yl}-5-(oxan-4-yl)-6-[(pyrrolidin-1-yl)methyl]pyridin-2-amine] | 1000 to 5000 nM | < 100 nM | –
CC(C)c1ccc(Nc2cc3nc(-c4cnn(C)c4)sc3cn2)nc1CN1CCCC1 [Example 227, N-[2-(1-Methyl-1H-pyrazol-4-yl)-[1,3]thiazolo[5,4-c]pyridin-6-yl]-5-(propan-2-yl)-6-[(pyrrolidin-1-yl)methyl]pyridin-2-amine] | 100 to 1000 nM | < 100 nM | –
C[C@H]1COCCN1c1nc2cc(Nc3ccc(C4CCOCC4)c(CN4CCCC4)n3)ncc2s1 [Example 235, N-{2-[(3S)-3-Methylmorpholin-4-yl]-[1,3]thiazolo[5,4-c]pyridin-6-yl}-5-(oxan-4-yl)-6-[(pyrrolidin-1-yl)methyl]pyridin-2-amine] | 1000 to 5000 nM | < 100 nM | –
Cc1cccnc1-c1nc2cc(Nc3cc(C4CCOCC4)nc(N4C[C@@H]5C[C@H]4CN5C)n3)ncc2s1 [Example 249, 2-[(1S,4S)-5-Methyl-2,5-diazabicyclo[2.2.1]heptan-2-yl]-N-[2-(3-methylpyridin-2-yl)-[1,3]thiazolo[5,4-c]pyridin-6-yl]-6-(oxan-4-yl)pyrimidin-4-amine] | 100 to 1000 nM | < 100 nM | < 100 nM
c1cncc(-c2nc3cc(Nc4ccc(C5CCOC5)c(CN5CCCC5)n4)ncc3s2)c1 (centres unmarked) [Example 254, 5-(Oxolan-3-yl)-N-[2-(pyridin-3-yl)-[1,3]thiazolo[5,4-c]pyridin-6-yl]-6-[(pyrrolidin-1-yl)methyl]pyridin-2-amine] | 100 to 1000 nM | < 100 nM | –
Cc1ccnn1-c1nc2cc(Nc3ccc(C4CCOC4)c(CN4CCCC4)n3)ncc2s1 (centres unmarked) [Example 256, N-[2-(5-Methyl-1H-pyrazol-1-yl)-[1,3]thiazolo[5,4-c]pyridin-6-yl]-5-(oxolan-3-yl)-6-[(pyrrolidin-1-yl)methyl]pyridin-2-amine] | < 100 nM | < 100 nM | –
CN(C)Cc1nc(Nc2cc3nc(-c4c(F)cccc4F)sc3cn2)ccc1C1CCOC1 (centres unmarked) [Example 257, N-[2-(2,6-Difluorophenyl)-[1,3]thiazolo[5,4-c]pyridin-6-yl]-6-[(dimethylamino)methyl]-5-(oxolan-3-yl)pyridin-2-amine] | 1000 to 5000 nM | < 100 nM | –
CC(C)(N)c1nc(Nc2cc3nc(-c4c(F)cccc4F)sc3cn2)ccc1N1CCC(F)(F)C1 [Example 271, 6-(2-Aminopropan-2-yl)-N-[2-(2,6-difluorophenyl)-[1,3]thiazolo[5,4-c]pyridin-6-yl]-5-(3,3-difluoropyrrolidin-1-yl)pyridin-2-amine] | 1000 to 5000 nM | < 100 nM | –
CC(c1nc(Nc2cc3nc(-c4c(F)cccc4F)sc3cn2)ccc1N1CCOCC1)N(C)C (centres unmarked) [Example 277, N-[2-(2,6-Difluorophenyl)-[1,3]thiazolo[5,4-c]pyridin-6-yl]-6-[1-(dimethylamino)ethyl]-5-(morpholin-4-yl)pyridin-2-amine] | 1000 to 5000 nM | < 100 nM | –
CN1C[C@@H]2C[C@H]1CN2c1cncc(Nc2cc3nc(-c4cccc(NS(C)(=O)=O)c4)sc3cn2)n1 [Example 285, N-{3-[6-({6-[(1S,4S)-5-methyl-2,5-diazabicyclo[2.2.1]heptan-2-yl]pyrazin-2-yl}amino)-[1,3]thiazolo[5,4-c]pyridin-2-yl]phenyl}methanesulfonamide] | 100 to 1000 nM | < 100 nM | < 100 nM
CN1C[C@@H]2C[C@H]1CN2c1nccc(Nc2cc3nc(-c4cccc(NS(C)(=O)=O)c4)sc3cn2)n1 [Example 286, N-{3-[6-({2-[(1S,4S)-5-methyl-2,5-diazabicyclo[2.2.1]heptan-2-yl]pyrimidin-4-yl}amino)-[1,3]thiazolo[5,4-c]pyridin-2-yl]phenyl}methanesulfonamide] | 1000 to 5000 nM | < 100 nM | < 100 nM

Results, then the molecule that gave them:

IC50 [1] | IC50 [2, 3] | IC50 [2, 4] | Structure (SMILES)
100 to 1000 nM | < 100 nM | – | c1cncc(-c2nc3cc(Nc4ccc(C5CCOCC5)c(CN5CCCC5)n4)ncc3s2)c1 [Example 225, 5-(Oxan-4-yl)-N-[2-(pyridin-3-yl)-[1,3]thiazolo[5,4-c]pyridin-6-yl]-6-[(pyrrolidin-1-yl)methyl]pyridin-2-amine]
< 100 nM | < 100 nM | < 100 nM | Cc1cc(-c2nc3cc(Nc4ccc(C5CCOCC5)c(N5C[C@@H]6CCN(C)[C@@H]6C5)n4)ncc3s2)ccn1 [Example 248, 6-[(3aS,6aS)-1-Methyl-octahydropyrrolo[3,4-b]pyrrol-5-yl]-N-[2-(2-methylpyridin-4-yl)-[1,3]thiazolo[5,4-c]pyridin-6-yl]-5-(oxan-4-yl)pyridin-2-amine]
100 to 1000 nM | < 100 nM | – | Cc1cc(-c2nc3cc(Nc4ccc(C5CCOC5)c(CN5CCCC5)n4)ncc3s2)ccn1 (centres unmarked) [Example 253, N-[2-(2-Methylpyridin-4-yl)-[1,3]thiazolo[5,4-c]pyridin-6-yl]-5-(oxolan-3-yl)-6-[(pyrrolidin-1-yl)methyl]pyridin-2-amine]
100 to 1000 nM | < 100 nM | – | Cc1cccc(F)c1-c1nc2cc(Nc3ccc(C4CCOC4)c(CN(C)C)n3)ncc2s1 (centres unmarked) [Example 255, 6-[(Dimethylamino)methyl]-N-[2-(2-fluoro-6-methylphenyl)-[1,3]thiazolo[5,4-c]pyridin-6-yl]-5-(oxolan-3-yl)pyridin-2-amine]
1000 to 5000 nM | < 100 nM | – | Cc1cccnc1-c1nc2cc(Nc3ccc(C4CC4)c(CN4CCCC4)n3)ncc2s1 [Example 262, 5-Cyclopropyl-N-[2-(3-methylpyridin-2-yl)-[1,3]thiazolo[5,4-c]pyridin-6-yl]-6-[(pyrrolidin-1-yl)methyl]pyridin-2-amine]
100 to 1000 nM | < 100 nM | – | CN1C[C@@H]2C[C@H]1CN2c1nccc(Nc2cc3nc(-c4ccnc(N5CC[C@@H](O)C5)c4)sc3cn2)n1 [Example 264, (3R)-1-{4-[6-({2-[(1S,4S)-5-Methyl-2,5-diazabicyclo[2.2.1]heptan-2-yl]pyrimidin-4-yl}amino)-[1,3]thiazolo[5,4-c]pyridin-2-yl]pyridin-2-yl}pyrrolidin-3-ol]
100 to 1000 nM | < 100 nM | – | CN1C[C@@H]2C[C@H]1CN2c1nccc(Nc2cc3nc(-c4ccnc(N5CCOCC5)c4)sc3cn2)n1 [Example 268, 2-[(1S,4S)-5-Methyl-2,5-diazabicyclo[2.2.1]heptan-2-yl]-N-{2-[2-(morpholin-4-yl)pyridin-4-yl]-[1,3]thiazolo[5,4-c]pyridin-6-yl}pyrimidin-4-amine]
1000 to 5000 nM | < 100 nM | – | CC(C)(N)c1nc(Nc2cc3nc(-c4c(F)cccc4F)sc3cn2)ccc1N1CCOCC1 [Example 269, 6-(2-Aminopropan-2-yl)-N-[2-(2,6-difluorophenyl)-[1,3]thiazolo[5,4-c]pyridin-6-yl]-5-(morpholin-4-yl)pyridin-2-amine]
100 to 1000 nM | < 100 nM | – | Cc1ccnn1-c1nc2cc(Nc3ccc(N4CCOCC4)c(C(C)(C)N)n3)ncc2s1 [Example 270, 6-(2-Aminopropan-2-yl)-N-[2-(5-methyl-1H-pyrazol-1-yl)-[1,3]thiazolo[5,4-c]pyridin-6-yl]-5-(morpholin-4-yl)pyridin-2-amine]
100 to 1000 nM | < 100 nM | – | Cc1ccnn1-c1nc2cc(Nc3ccc(N4CCC(F)(F)C4)c(C(C)(C)N)n3)ncc2s1 [Example 273, 6-(2-Aminopropan-2-yl)-5-(3,3-difluoropyrrolidin-1-yl)-N-[2-(5-methyl-1H-pyrazol-1-yl)-[1,3]thiazolo[5,4-c]pyridin-6-yl]pyridin-2-amine]
> 5000 nM | < 100 nM | – | NC1(c2nc(Nc3cc4nc(-c5c(F)cccc5F)sc4cn3)ccc2N2CCC(F)(F)C2)CC1 [Example 274, 6-(1-Aminocyclopropyl)-N-[2-(2,6-difluorophenyl)-[1,3]thiazolo[5,4-c]pyridin-6-yl]-5-(3,3-difluoropyrrolidin-1-yl)pyridin-2-amine]
> 5000 nM | < 100 nM | – | CN(C)Cc1cc(N2CCOCC2)cc(Nc2cc3nc(-c4c(F)cccc4F)sc3cn2)n1 [Example 275, N-[2-(2,6-Difluorophenyl)-[1,3]thiazolo[5,4-c]pyridin-6-yl]-6-[(dimethylamino)methyl]-4-(morpholin-4-yl)pyridin-2-amine]
> 5000 nM | > 5000 nM | – | CN(C)Cc1ccc(N2CCOCC2)c(Nc2cc3nc(-c4c(F)cccc4F)sc3cn2)n1 [Example 276, N-[2-(2,6-Difluorophenyl)-[1,3]thiazolo[5,4-c]pyridin-6-yl]-6-[(dimethylamino)methyl]-3-(morpholin-4-yl)pyridin-2-amine]
> 5000 nM | < 100 nM | – | CCNC(C)c1nc(Nc2cc3nc(-c4c(F)cccc4F)sc3cn2)ccc1N1CCOCC1 (centres unmarked) [Example 278, N-[2-(2,6-Difluorophenyl)-[1,3]thiazolo[5,4-c]pyridin-6-yl]-6-[1-(ethylamino)ethyl]-5-(morpholin-4-yl)pyridin-2-amine]
1000 to 5000 nM | 100 to 1000 nM | – | CN1C[C@@H]2C[C@H]1CN2c1cncc(Nc2cc3nc(-c4cccc(S(=O)(=O)N(C)C)c4)sc3cn2)n1 [Example 288, N,N-dimethyl-3-[6-({6-[(1S,4S)-5-methyl-2,5-diazabicyclo[2.2.1]heptan-2-yl]pyrazin-2-yl}amino)-[1,3]thiazolo[5,4-c]pyridin-2-yl]benzene-1-sulfonamide]
